# Several values for one entry are separate records, joined by “and”; a condition that tells them apart may be missing. Identical values can stand only once. Inconclusive results and toxic doses are left out.
# System: P388 leukemia ip, CD2F1 mice, survival T/C
# Assay: NCI In Vivo Anticancer Drug Screen. Data for tumor model P388 Leukemia (intraperitoneal) in CD2F1 (CDF1) mice
# Conditions: endpoint: median survival time, higher = longer survival
# Outline: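 Mice carrying the transplanted tumor received test compound or vehicle. Survival was recorded in each group, and the value is the treated-group measurement divided by that of the vehicle-treated control group.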
# [1] = dose: 100.0 mg/kg/injection, schedule: Q01DX009 (ip), vehicle: saline with Tween-80
# [2] = dose: 100.0 mg/kg/injection, schedule: Q04DX003 (ip), vehicle: saline with Tween-80
# [3] = dose: 50.0 mg/kg/injection, schedule: Q01DX005 (ip), vehicle: saline with Tween-80
# [4] = dose: 100.0 mg/kg/injection, schedule: Q01DX005 (ip), vehicle: saline with Tween-80
# [5] = dose: 200.0 mg/kg/injection, schedule: Q01DX009 (ip), vehicle: saline with Tween-80
# [6] = dose: 200.0 mg/kg/injection, schedule: Q01DX005 (ip), vehicle: saline with Tween-80
compound,measurement,setting,value
C(=N/NC1=NCCN1)/c1c2ccccc2c(/C=N\NC2=NCCN2)c2ccccc12,T/C,"dose: 0.05 mg/kg/injection, schedule: Q01DX009 (ip), vehicle: saline",155 % of control
same,T/C,"dose: 0.2 mg/kg/injection, schedule: Q01DX009 (ip), vehicle: saline",161 % of control
same,T/C,"dose: 0.39 mg/kg/injection, schedule: Q01DX009 (ip), vehicle: saline",183 % of control
same,T/C,"dose: 0.78 mg/kg/injection, schedule: Q01DX009 (ip), vehicle: saline",238 % of control
same,T/C,"dose: 1.56 mg/kg/injection, schedule: Q01DX009 (ip), vehicle: saline",188 % of control and 193 % of control
same,T/C,"dose: 3.12 mg/kg/injection, schedule: Q01DX009 (ip), vehicle: saline",204 % of control
same,T/C,"dose: 5.18 mg/kg/injection, schedule: Q04DX002 (ip), vehicle: saline",181 % of control
same,T/C,"dose: 6.25 mg/kg/injection, schedule: Q01DX009 (ip), vehicle: saline",193 % of control
same,T/C,"dose: 7.78 mg/kg/injection, schedule: Q04DX002 (ip), vehicle: saline",228 % of control
same,T/C,"dose: 8.64 mg/kg/injection, schedule: Q04DX002 (ip), vehicle: saline",227 % of control
same,T/C,"dose: 12.5 mg/kg/injection, schedule: Q01DX009 (ip), vehicle: saline",225 % of control
same,T/C,"dose: 13.0 mg/kg/injection, schedule: Q04DX002 (ip), vehicle: saline",166 % of control
same,T/C,"dose: 14.4 mg/kg/injection, schedule: Q04DX002 (ip), vehicle: saline",181 % of control
same,T/C,"dose: 21.6 mg/kg/injection, schedule: Q04DX002 (ip), vehicle: saline",184 % of control
same,T/C,"dose: 24.0 mg/kg/injection, schedule: Q04DX002 (ip), vehicle: saline",200 % of control
same,T/C,"dose: 25.0 mg/kg/injection, schedule: Q01DX009 (ip), vehicle: saline",121 % of control
same,T/C,"dose: 29.0 mg/kg/injection, schedule: Q01DX001 (ip), vehicle: water",195 % of control
same,T/C,"dose: 36.0 mg/kg/injection, schedule: Q04DX002 (ip), vehicle: saline",210 % of control
same,T/C,"dose: 40.0 mg/kg/injection, schedule: Q04DX002 (ip), vehicle: saline",181 % of control
same,T/C,"dose: 60.0 mg/kg/injection, schedule: Q04DX002 (ip), vehicle: saline",192 % of control
same,T/C,"dose: 87.0 mg/kg/injection, schedule: Q01DX001 (ip), vehicle: water",222 % of control
same,T/C,"dose: 133.0 mg/kg/injection, schedule: Q01DX001 (ip), vehicle: water",236 % of control
same,T/C,"dose: 200.0 mg/kg/injection, schedule: Q01DX001 (ip), vehicle: water",286 % of control
same,T/C,"dose: 1.57 micrograms/kg/injection, schedule: Q01DX009 (ip), vehicle: saline",100 % of control
same,T/C,"dose: 3.13 micrograms/kg/injection, schedule: Q01DX009 (ip), vehicle: saline",99 % of control
same,T/C,"dose: 6.25 micrograms/kg/injection, schedule: Q01DX009 (ip), vehicle: saline",107 % of control
same,T/C,"dose: 12.5 micrograms/kg/injection, schedule: Q01DX009 (ip), vehicle: saline",104 % of control
same,T/C,"dose: 25.0 micrograms/kg/injection, schedule: Q01DX009 (ip), vehicle: saline",109 % of control
same,T/C,"dose: 50.0 micrograms/kg/injection, schedule: Q01DX009 (ip), vehicle: saline",122 % of control
O=C1N=C2SCCN2C(=O)C1Nc1ccc(Cl)cc1 (configuration not stated),T/C,"dose: 100.0 mg/kg/injection, schedule: Q04DX002 (ip), vehicle: saline with Tween-80",99 % of control
same,T/C,"dose: 200.0 mg/kg/injection, schedule: Q04DX002 (ip), vehicle: saline with Tween-80",100 % of control
same,T/C,"dose: 400.0 mg/kg/injection, schedule: Q04DX002 (ip), vehicle: saline with Tween-80",98 % of control
CC(=O)OC(C)C(=O)NCC(C)O (configuration not stated),T/C,"dose: 25.0 mg/kg/injection, schedule: Q01DX005 (ip), vehicle: saline",100 % of control
same,T/C,"dose: 50.0 mg/kg/injection, schedule: Q01DX005 (ip), vehicle: saline",103 % of control
same,T/C,"dose: 100.0 mg/kg/injection, schedule: Q01DX005 (ip), vehicle: saline",98 % of control
same,T/C,"dose: 200.0 mg/kg/injection, schedule: Q01DX005 (ip), vehicle: saline",100 % of control
CCCCOC(=O)c1[nH]cnc1/N=N\N(C)C,T/C,"dose: 25.0 mg/kg/injection, schedule: Q01DX009 (ip), vehicle: saline with Tween-80",120 % of control
same,T/C,[1],105 % of control
same,T/C,[2],108 % of control
same,T/C,"dose: 132.0 mg/kg/injection, schedule: Q04DX003 (ip), vehicle: saline with Tween-80",100 % of control
same,T/C,"dose: 300.0 mg/kg/injection, schedule: Q04DX003 (ip), vehicle: saline with Tween-80",90 % of control
same,T/C,"dose: 400.0 mg/kg/injection, schedule: Q04DX003 (ip), vehicle: saline with Tween-80",100 % of control
[Cl][Pt+2][Cl].[NH-]C1CCC1.[NH2-],T/C,"dose: 1.5 mg/kg/injection, schedule: Q01DX005 (ip), vehicle: saline",155 % of control and 167 % of control
same,T/C,"dose: 3.0 mg/kg/injection, schedule: Q01DX005 (ip), vehicle: saline",155 % of control and 189 % of control and 190 % of control
same,T/C,"dose: 12.0 mg/kg/injection, schedule: Q01DX005 (ip), vehicle: saline",214 % of control
Cn1nnnc1CCN(CCN(CCc1nnnn1C)/N=C\c1ccccc1)/N=C\c1ccccc1,T/C,"dose: 50.0 mg/kg/injection, schedule: Q04DX003 (ip), vehicle: Klucel (hydroxypropylcellulose) (HPC)",95 % of control
same,T/C,"dose: 100.0 mg/kg/injection, schedule: Q04DX003 (ip), vehicle: Klucel (hydroxypropylcellulose) (HPC)",95 % of control
same,T/C,"dose: 200.0 mg/kg/injection, schedule: Q04DX003 (ip), vehicle: Klucel (hydroxypropylcellulose) (HPC)",96 % of control
O=C1c2ccccc2-n2c1nc1ccc([N+](=O)[O-])cc1c2=O,T/C,"dose: 50.0 mg/kg/injection, schedule: Q01DX005 (ip), vehicle: Klucel (hydroxypropylcellulose) (HPC)",103 % of control
same,T/C,"dose: 100.0 mg/kg/injection, schedule: Q01DX005 (ip), vehicle: Klucel (hydroxypropylcellulose) (HPC)",97 % of control
same,T/C,"dose: 200.0 mg/kg/injection, schedule: Q01DX005 (ip), vehicle: Klucel (hydroxypropylcellulose) (HPC)",94 % of control
same,T/C,"dose: 400.0 mg/kg/injection, schedule: Q04DX002 (ip), vehicle: Klucel (hydroxypropylcellulose) (HPC)",96 % of control
O=C(O)/C=C/c1ccc([N+](=O)[O-])o1,T/C,"dose: 25.0 mg/kg/injection, schedule: Q01DX009 (ip), vehicle: Klucel (hydroxypropylcellulose) (HPC)",107 % of control and 117 % of control
same,T/C,"dose: 50.0 mg/kg/injection, schedule: Q01DX009 (ip), vehicle: Klucel (hydroxypropylcellulose) (HPC)",120 % of control
COc1ccc(CCNC2=CC(=O)CC2)cc1OC,T/C,"dose: 25.0 mg/kg/injection, schedule: Q01DX005 (ip), vehicle: saline with Tween-80",92 % of control
same,T/C,[3],89 % of control
same,T/C,[4],92 % of control
COC(=O)[C@H](C)C1OC(O)C=CC1=O (some centres not stated),T/C,"dose: 6.25 mg/kg/injection, schedule: Q01DX001 (ip), vehicle: saline + Tween-80 + alcohol",100 % of control
same,T/C,"dose: 12.5 mg/kg/injection, schedule: Q01DX001 (ip), vehicle: saline + Tween-80 + alcohol",108 % of control
same,T/C,"dose: 25.0 mg/kg/injection, schedule: Q01DX001 (ip), vehicle: saline + Tween-80 + alcohol",101 % of control
same,T/C,"dose: 50.0 mg/kg/injection, schedule: Q01DX001 (ip), vehicle: saline + Tween-80 + alcohol",101 % of control
Cc1ccc(NC(=O)Oc2ccc(Cl)c(C)c2)c([N+](=O)[O-])c1,T/C,[1],87 % of control
same,T/C,[5],88 % of control
Nc1nc(N)c2cc(Sc3cccc(C(F)(F)F)c3)ccc2n1,T/C,[1],172 % of control
same,T/C,[5],94 % of control
O=[N+]([O-])/C=C/c1c[nH]c2c1ccc1ccccc12,T/C,[4],86 % of control
same,T/C,[6],94 % of control
O/N=C\c1ccc(/C=N/O)cc1,T/C,"dose: 50.0 mg/kg/injection, schedule: Q04DX003 (ip), vehicle: saline with Tween-80",100 % of control
same,T/C,[2],100 % of control
same,T/C,"dose: 200.0 mg/kg/injection, schedule: Q04DX003 (ip), vehicle: saline with Tween-80",95 % of control
CN1CCC(=NO)CC1,T/C,"dose: 60.0 mg/kg/injection, schedule: Q01DX005 (ip), vehicle: saline",95 % of control
same,T/C,"dose: 120.0 mg/kg/injection, schedule: Q01DX005 (ip), vehicle: saline",89 % of control
same,T/C,"dose: 240.0 mg/kg/injection, schedule: Q01DX005 (ip), vehicle: saline",94 % of control
COC(=O)C1=[N+]([O-])OC(C(=O)OC)C1c1ccc(NC(C)=O)cc1 (configuration not stated),T/C,[3],98 % of control
same,T/C,[4],93 % of control
same,T/C,[6],90 % of control
Oc1ccc2ccccc2c1C=Nc1ccc(N=Cc2c(O)ccc3ccccc23)cc1,T/C,"dose: 100.0 mg/kg/injection, schedule: Q01DX001 (ip), vehicle: saline with Tween-80",91 % of control
same,T/C,"dose: 200.0 mg/kg/injection, schedule: Q01DX001 (ip), vehicle: saline with Tween-80",90 % of control
same,T/C,"dose: 400.0 mg/kg/injection, schedule: Q01DX001 (ip), vehicle: saline with Tween-80",91 % of control
O=C1CCN(Cc2ccccc2)C(=O)N1,T/C,"dose: 50.0 mg/kg/injection, schedule: Q01DX009 (ip), vehicle: saline with Tween-80",100 % of control
same,T/C,[1],105 % of control
same,T/C,[5],100 % of control
